The results in this text go back to ChEMBL document CHEMBL1201862, “PubChem BioAssay data set” (2004).

The GI50 is the concentration giving 50% growth inhibition.

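Cultured in 96-well plates, cells were exposed to test compound for 48 hours across five concentrations. Here, GI50 denotes the concentration required for 50% inhibition of growth.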 Activity calls are given as the source filed them. Cut-off read from the data, not from the text of the source: active = GI50 up to about 1.1 µM and inactive = higher.

Some test systems named below: A549; CCRF-CEM; HCC 2998; HCT-15; HOP-62; HT-29; Hs-578T; IGROV-1; K562; MDA-MB-231; MDA-MB-435; OVCAR-4; SF-268; SW-620; UACC-62; BT-549; HL-60; Malme-3M; SF-539; SK-OV-3.
Experiment in all cases: DTP human tumour cell line panel, 48 h

In the case of `Cc1ccc(S(=O)(=O)n2c3ccc(Br)cc3c3nc4ccccc4nc32)cc1`, the GI50 in the test on A549 is > 100 µM (inactive); in the test with CCRF-CEM, > 100 µM (inactive); with HCC 2998, > 100 µM (inactive); in the test on HCT-15, over 100 µM; with HOP-62, > 100 µM (inactive); in the test on HT-29 it was > 100 µM (inactive). Also, the GI50 in the test with Hs-578T was > 100 µM (inactive); with IGROV-1, 0.689 µM (active); in the test on K562, > 100 µM (inactive); in the test with MDA-MB-231, > 100 µM (inactive); in the test on MDA-MB-435, > 100 µM (inactive); with OVCAR-4 it was 72.8 µM (inactive). In addition, the GI50 with SF-268, in the test on SW-620 and in the test on UACC-62 was > 100 µM (inactive) in each case.
As to `Cc1cc(C)nc(NS(=O)(=O)c2ccc(NNc3c4ccccc4nc4c(C(=O)Nc5ccc(S(=O)(=O)N=C(N)N)cc5)cccc34)cc2)n1`, the GI50 is > 100 µM (inactive) in the test with A549; 56 µM (inactive) with BT-549; 34.6 µM (inactive) in the test on CCRF-CEM; 39.3 µM (inactive) in the test with HCC 2998; 63.4 µM in the test with HCT-15; 37.5 µM (inactive) in the test with HL-60. The GI50 was > 100 µM (inactive) with HOP-62; 26.6 µM (inactive) with HT-29; 53 µM (inactive) with IGROV-1; 31.4 µM (inactive) in the test with K562; 49.1 µM (inactive) in the test with MDA-MB-231; 39.1 µM (inactive) in the test on MDA-MB-435. Also, the GI50 is 76 µM (inactive) with Malme-3M; 65.2 µM (inactive) in the test with OVCAR-4; 45 µM (inactive) in the test on SF-268; 67 µM (inactive) in the test with SF-539; 24.8 µM (inactive) in the test with SK-OV-3; 71.6 µM (inactive) in the test on SW-620.
Consider `CCOC1C=CCCO1` (centres undefined), for which the GI50 in the test with A549 is > 100 µM (inactive); with CCRF-CEM, > 100 µM (inactive); in the test with HCC 2998, 1.55 µM (inactive); in the test with HCT-15, over 100 µM; in the test with HL-60, > 100 µM (inactive); in the test on HOP-62, > 100 µM (inactive). The GI50 in the test with HT-29, in the test with Hs-578T, in the test on IGROV-1, in the test on K562, in the test with MDA-MB-231 and in the test with MDA-MB-435 was > 100 µM (inactive) each time. Besides, the GI50 in the test on Malme-3M, in the test on OVCAR-4, with SF-268, in the test on SF-539, with SK-OV-3 and in the test with SW-620 was > 100 µM (inactive) each time. Further, the GI50 in the test with UACC-62 is > 100 µM (inactive).
Take `N#CCC1C2CC3C(C2=O)C13` (centres undefined): the GI50 was > 100 µM (inactive) with A549; > 100 µM (inactive) in the test on CCRF-CEM; > 100 µM (inactive) in the test with HCC 2998; over 100 µM with HCT-15; > 100 µM (inactive) with HOP-62; > 100 µM (inactive) in the test with HT-29. Also, the GI50 with Hs-578T, in the test with IGROV-1, in the test with K562, in the test on MDA-MB-231, in the test on MDA-MB-435 and with Malme-3M was > 100 µM (inactive) in each case. In addition, the GI50 in the test with OVCAR-4, with SF-268, in the test on SF-539, in the test on SK-OV-3, in the test on SW-620 and in the test with UACC-62 was > 100 µM (inactive) each time.
For the compound `CSc1nc2c(c(=O)n1C)N=C(c1ccc([N+](=O)[O-])cc1)CC(c1ccccc1)N2` (centres undefined), the GI50 is > 100 µM (inactive) with A549; > 100 µM (inactive) in the test on BT-549; 72.4 µM (inactive) in the test on CCRF-CEM; > 100 µM (inactive) in the test on HCC 2998; 20.5 µM (inactive) in the test on HL-60; > 100 µM (inactive) in the test on HOP-62. The GI50 in the test with HT-29 is > 100 µM (inactive); in the test with IGROV-1, > 100 µM (inactive); with K562, > 100 µM (inactive); with MDA-MB-231 it was 36.8 µM (inactive); with MDA-MB-435 it was > 100 µM (inactive); in the test with Malme-3M it was > 100 µM (inactive). For the same compound, the GI50 in the test on OVCAR-4 is 91.8 µM (inactive); with SF-539, > 100 µM (inactive); in the test with SK-OV-3 it was > 100 µM (inactive); with SW-620 it was > 100 µM (inactive); in the test on UACC-62, > 100 µM (inactive).
In the case of `CC(C)=C=CP(=O)(O)c1ccccc1`, the GI50 in the test on A549 was > 100 µM (inactive); with HCC 2998, > 100 µM (inactive); in the test with HCT-15, over 100 µM; in the test with HL-60, > 100 µM (inactive); in the test on HOP-62, > 100 µM (inactive); in the test on HT-29, > 100 µM (inactive). For the same compound, the GI50 with Hs-578T, in the test on IGROV-1, in the test with K562, with MDA-MB-435, with Malme-3M and with OVCAR-4 was > 100 µM (inactive) each time. For the same compound, the GI50 in the test with SF-268, with SF-539, in the test on SK-OV-3, with SW-620 and in the test on UACC-62 was > 100 µM (inactive) each time.
In the case of `Cc1cccc(Nc2cn(CCOc3ccccc3)c(=O)[nH]c2=O)c1`, the GI50 with A549 is 22.7 µM (inactive); with CCRF-CEM, 52.6 µM (inactive); in the test with HCC 2998, 24.8 µM (inactive); with HCT-15, 49.9 µM; with HOP-62, 29.8 µM (inactive); with Hs-578T it was 6.41 µM (inactive). In addition, the GI50 in the test on IGROV-1 was 16.7 µM (inactive); in the test on K562, 58.6 µM (inactive); in the test with MDA-MB-435, 29.5 µM (inactive); with OVCAR-4, 69.5 µM (inactive); with SF-268 it was 30 µM (inactive); with SW-620, > 100 µM (inactive). Moreover, the GI50 with UACC-62 is 46.6 µM (inactive).
For the compound `Cc1cc2nc3ccccc3n2c2ccccc12`, the GI50 was > 10 µM (inactive) in the test on A549; 5.96 µM (inactive) in the test with CCRF-CEM; > 10 µM (inactive) with HCC 2998; over 10 µM in the test on HCT-15; > 10 µM (inactive) in the test with HL-60; > 10 µM (inactive) with HOP-62. The GI50 with HT-29, in the test with Hs-578T, in the test with IGROV-1, in the test on K562, with MDA-MB-231 and with MDA-MB-435 was > 10 µM (inactive) throughout. The GI50 with Malme-3M, with OVCAR-4, in the test with SF-268, with SF-539, in the test with SK-OV-3 and in the test with SW-620 was > 10 µM (inactive) each time. Besides, the GI50 in the test with UACC-62 is > 10 µM (inactive).
In the case of `O=C(NC/C=C/Br)NC1CCNc2ccccc21` (centres undefined), the GI50 is 32.2 µM (inactive) in the test with A549; 36.4 µM (inactive) in the test with CCRF-CEM; 27.9 µM (inactive) with HCC 2998; 37.3 µM with HCT-15; 32.1 µM (inactive) in the test with HL-60; 45.2 µM (inactive) in the test with HOP-62. For the same compound, the GI50 in the test with HT-29 is 15.7 µM (inactive); in the test on IGROV-1 it was 76.6 µM (inactive); in the test on K562 it was 30.1 µM (inactive); in the test with MDA-MB-231 it was 41 µM (inactive); in the test with MDA-MB-435, 31.6 µM (inactive); in the test with Malme-3M it was 31.6 µM (inactive). Further, the GI50 in the test on OVCAR-4 is 72.1 µM (inactive); in the test on SF-268 it was 77.4 µM (inactive); in the test with SF-539, 20.5 µM (inactive); in the test on SK-OV-3 it was > 100 µM (inactive); in the test with SW-620 it was 52.8 µM (inactive); in the test on UACC-62, 31.3 µM (inactive).
